Values belong to the molecule of their own block, whether it stands above or below them.
What was measured:
HepG2 [1] = assay: Antiproliferative activity against human HepG2 cells incubated for 72 hrs; type: functional, cell-based; details: HepG2, 72 h
HepG2 [2] = assay: Cytotoxicity against human HepG2 cells incubated for 48 hrs by MTT assay; type: functional, cell-based; details: HepG2, 48 h
SK-HEP1 = assay: Antiproliferative activity against human SK-HEP1 cells assessed as cell growth inhibition by SRB method; type: functional
Huh-7 [3] = assay: Antiproliferative activity against human Huh-7 cells by MTT assay; type: functional, cell-based
[4] = Antiproliferative activity against human HCC cells by MTT assay; type: functional, cell-based
SNU-387 = assay: Antiproliferative activity against human SNU-387 cells by MTT assay; type: functional, cell-based
HepG2 [5] = assay: Antiproliferative activity against human HepG2 cells by MTT assay; type: functional, cell-based
Bel-7402 [6] = assay: Cytotoxicity against human 7402 hepatoma cells incubated for 24 hrs by MTT assay; type: functional, cell-based; details: Bel-7402, 24 h
MDA-MB-435 = assay: Cytotoxicity against human MDA-MB-435 cells incubated for 24 hrs by MTT assay; type: functional, cell-based; details: MDA-MB-435, 24 h
Bel-7402 [7] = assay: Growth inhibition of human Bel-7402 cells; type: functional, cell-based
Hep 3B2 [8] = assay: Cytotoxicity against human Hep3B cells by MTT assay; type: functional, cell-based
HA22T cell line = assay: Cytotoxicity against human HA22T cells by MTT assay; type: functional, cell-based
HepG2 [9] = assay: Cytotoxicity against human HepG2 cells by MTT assay; type: functional, cell-based
HepG2 [10] = assay: Antiproliferative activity against human HepG2 cells assessed as cell growth inhibition by SRB method; type: functional
HepG2 [11] = assay: Cytotoxicity against human HepG2 cells measured after 3 days by MTT assay; type: functional, cell-based; details: HepG2, 72 h
HepG2 [12] = assay: Antiproliferative activity against doxorubicin sensitive human HepG2 cells assessed as decrease in cell proliferation at 50 uM incubated for 24 hrs by MTT assay relative to control; type: functional; set-up: scale not given: the % may be the effect or the level left
HepG2 [13] = assay: Antiproliferative activity against doxorubicin resistant human HepG2 cells at 50 uM incubated for 24 hrs by MTT assay relative to control; type: functional
Hep 3B2 [14] = assay: Cytotoxicity against human Hep3B cells; type: functional, cell-based
Huh-7 [15] = assay: Cytotoxicity against human Huh-7 cells; type: functional, cell-based

SMILES: CC[C@H]1C=CCC[C@@]2(C[C@@H]3CC[C@]4(O)[C@H](C(=O)OCCCCCCCCCCCCCCCCC(=O)N(CCCN)C[C@@H](O)CCN)[C@]5(CCC[C@@H](C)O5)NC(=N2)N34)O1
IC50 (HepG2 [1]): 2.11 µM

SMILES: COC1=CC(=O)c2c(O)c3c(c(O)c2C1=O)C[C@]1(C)OCO[C@@H]1C3
IC50 (HepG2 [2]): 12.8 µM

GI50 (SK-HEP1): 0.0378 µM
SMILES: CC[C@]1(O)C[C@@H]2CN(CCc3c([nH]c4ccccc34)[C@@](C(=O)OC)(c3cc4c(cc3OC)N(C)[C@H]3[C@@](O)(C(=O)OC)[C@H](OC(C)=O)[C@]5(CC)C=CCN6CC[C@]43[C@@H]65)C2)C1 [VINBLASTINE]

IC50 (Huh-7 [3]): 4.25 µM | IC50 (SNU-387): 259 µM | IC50 (HepG2 [5]): 6.4 µM
SMILES: CNC(=O)c1cc(Oc2ccc(NC(=O)Nc3ccc(Cl)c(C(F)(F)F)c3)cc2)ccn1 [SORAFENIB]
IC50 [4]: 21.2 µM

SMILES: COC(=O)N[C@H]1[C@@H](C)O[C@@H](O[C@H]2C/C=C(\C)[C@@H]3C=C[C@@H]4[C@@H](O[C@H]5C[C@@H](O[C@H]6C[C@@H](O)[C@@H](O[C@@H]7C[C@@H](O)[C@@H](OC)[C@H](C)O7)[C@H](C)O6)[C@@H](O)[C@H](C)O5)[C@H](C)C[C@H](C)[C@H]4[C@]3(C)/C(O)=C3\C(=O)O[C@]4(C[C@@H](C)C(CO)=C[C@H]4/C=C/2C)C3=O)C[C@]1(C)[N+](=O)[O-]
IC50 (Bel-7402 [6]): 0.506 µM | IC50 (MDA-MB-435): 52.1 µM

IC50 (Bel-7402 [7]): 15.9 µM
SMILES: Oc1cc(Br)c(Cc2cc(O)c(O)cc2Br)cc1O

SMILES: CCCCC/C=C\CC1(O)C=C(Br)C(=O)/C1=C\C=C\CCCC(=O)OC (stereo unspecified)
IC50 (Hep 3B2 [8]): 0.47 µM | IC50 (HA22T cell line): 0.41 µM | IC50 (HepG2 [9]): 0.59 µM

SMILES: C[C@]1(O)Cc2c(O)c3c(c(O)c2C[C@H]1O)C(=O)C=C(NCc1ccc(F)cc1)C3=O
IC50 (HepG2 [2]): 11.2 µM

SMILES: CC[C@H]1C=CCC[C@@]2(C[C@@H]3CCC4[C@H](C(=O)OCCCCCCCCCCCCCCCC(=O)N(CCCN)C[C@@H](O)CCN)[C@]5(CCC[C@@H](C)O5)NC(=N2)N43)O1 (stereo partly specified)
IC50 (HepG2 [1]): 2.66 µM

SMILES: CCCCSC1=C(SCCCC)C(=O)c2c(O)c3c(c(O)c2C1=O)C[C@@H](O)[C@@](C)(O)C3
IC50 (HepG2 [2]): 5.04 µM

SMILES: COC1=CC[C@@H]([C@@H](C)/C=C(C)/C=C\C=C/C(=O)N[C@H](C(=O)N/C=C\C[C@H](C/C=C(\C)Cl)OC(N)=O)C(C)(C)C)OC1=O
GI50 (HepG2 [10]): 0.000752 µM | GI50 (SK-HEP1): 0.000278 µM

SMILES: C=C(CC[C@@H](C)[C@H]1[C@@H](O)C[C@H]2[C@@H]3CC=C4C[C@@H](O)CC[C@]4(C)[C@H]3[C@H](O)C[C@]12C)C(C)C
IC50 (HepG2 [11]): 14.9 µM

SMILES: CCC(C)SC1=C(SC)C(=O)c2c(O)c3c(c(O)c2C1=O)C[C@](C)(O)[C@H](O)C3 (stereo partly specified)
IC50 (HepG2 [2]): 2.39 µM

SMILES: C/C=C1/C(=C\c2[nH]c(/C=C3N=C(/C=C4/NC(=O)C(CC)=C4C)C(C)=C/3CCC(=O)O)c(CCC(=O)O)c2C)NC(=O)C1C (stereo unspecified)
Activity (HepG2 [12]): 40% | Activity (HepG2 [13]): 50%

SMILES: C#CCNC1=CC(=O)c2c(O)c3c(c(O)c2C1=O)C[C@](C)(O)[C@H](O)C3
IC50 (HepG2 [2]): 10.1 µM

SMILES: C/C=C(\N=C=S)C(=O)O[C@H]1[C@@H](OC(C)=O)[C@@H](O)[C@H]([C@@]2(O)CC(=O)C(N)=C(C(=O)O)C2=O)O[C@@H]1C
IC50 (HepG2 [9]): 4.3 µM

SMILES: COc1cc(O)c2c(c1O)C(=O)C1=C(C2=O)C(O)C(O)C(C)(O)C1 (stereo unspecified)
IC50 (Hep 3B2 [14]): 3.2 µM | IC50 (Huh-7 [15]): 9.6 µM
